In US20150105252A1, “SUBSTITUTED PYRAZOLES AS HERBICIDES” (E I DU PONT DE NEMOURS AND COMPANY, priority 2013, published 2015):

Tests used:
barnyardgrass [1] = experiment: Test C flooded paddy test; format: in vivo, Echinochloa crus-galli; details: Flood
Text: (§1) At time of treatment, test pots were flooded to 3 cm above the soil surface, treated by application of test compounds directly to the paddy water, and then maintained at that water depth for the duration of the test. Treated plants and controls were maintained in a greenhouse for 13 to 15 days, after which time all species were compared to controls and visually evaluated. […] A dash (-) response means no test result.

morningglory [2] = experiment: Test A preemergence; format: in vivo, Ipomoea spp.; details: 0 to 100 scale
In short: (§2)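 Visual injury ratings, 0 = no effect to 100 = complete control, taken about 10 days after treatment against untreated controls. Test chemicals, in a non-phytotoxic surfactant-containing solvent, were sprayed onto soil preemergence or onto one- to two-leaf plants (2–10 cm) postemergence, in loam–sand soil under greenhouse conditions.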

crabgrass, large [3] = experiment: Test A postemergence; format: in vivo, Digitaria sanguinalis
In short: as §2

barnyardgrass [4] = experiment: Test A preemergence; format: in vivo, Echinochloa crus-galli; details: 0 to 100 scale
In short: as §2

ducksalad = experiment: Test C flooded paddy test; format: in vivo, Heteranthera limosa; details: Flood
Text: as §1

rice = experiment: Test C flooded paddy test; format: in vivo, Oryza sativa; details: Flood
Text: as §1

corn [5] = experiment: Test A preemergence; format: in vivo, Zea mays; details: 0 to 100 scale
In short: as §2

sedge, umbrella = experiment: Test C flooded paddy test; format: in vivo, Cyperus difformis; details: Flood
Text: as §1

foxtail, giant [6] = experiment: Test A preemergence; format: in vivo, Setaria faberii; details: 0 to 100 scale
In short: as §2

barnyardgrass [7] = experiment: Test A postemergence; format: in vivo, Echinochloa crus-galli; details: Postemergence
In short: as §2

velvetleaf [8] = experiment: Test A postemergence; format: in vivo, Abutilon theophrasti
In short: as §2

corn [9] = experiment: Test A postemergence; format: in vivo, Zea mays
In short: as §2

pigweed [10] = experiment: Test A postemergence; format: in vivo, Amaranthus retroflexus
In short: as §2

velvetleaf [11] = experiment: Test A preemergence; format: in vivo, Abutilon theophrasti; details: 0 to 100 scale
In short: as §2

pigweed [12] = experiment: Test A preemergence; format: in vivo, Amaranthus retroflexus; details: 0 to 100 scale
In short: as §2

foxtail, giant [13] = experiment: Test A postemergence; format: in vivo, Setaria faberii
In short: as §2

wheat [14] = experiment: Test A postemergence; format: in vivo, Triticum aestivum
In short: as §2

morningglory [15] = experiment: Test A postemergence; format: in vivo, Ipomoea spp.
In short: as §2

crabgrass, large [16] = experiment: Test A preemergence; format: in vivo, Digitaria sanguinalis; details: 0 to 100 scale
In short: as §2

wheat [17] = experiment: Test A preemergence; format: in vivo, Triticum aestivum
In short: as §2

[18] = 31 g ai/ha, scale 0 to 100 (0 no effect, 100 complete control)
[19] = 62 g ai/ha, scale 0 to 100 (0 no effect, 100 complete control)
[20] = Preemergence, 1000 g ai/ha, 0 no effect, 100 complete control
[21] = Postemergence, 1000 g ai/ha, visual rating after approx. 10 days, 0 to 100 scale (0 no effect, 100 complete control)
[22] = 1000 g ai/ha, visual rating after approx. 10 days, 0 to 100 scale (0 no effect, 100 complete control)
[23] = Preemergence, 1000 g ai/ha, 0 to 100 scale, 0 no effect, 100 complete control
[24] = Preemergence, 500 g ai/ha, 0 no effect, 100 complete control
[25] = preemergence, 125 g ai/ha, visual injury, approx. 10 days
[26] = Postemergence, 500 g ai/ha, visual rating after approx. 10 days, 0 to 100 scale (0 no effect, 100 complete control)
[27] = postemergence, 125 g ai/ha, about 10 days, visual rating on 0 to 100 scale (0 no effect, 100 complete control)

CCCNC(=O)c1cc(CC)n(Cc2cccc(C(F)(F)F)c2)n1 [Compound 16]
100: Morningglory plant response rating (morningglory [2]; [20]) | Plant response rating, Ducksalad (ducksalad; 250 g ai/ha, scale 0 to 100) | Plant response rating, Sedge, Umbrella (sedge, umbrella; 125 g ai/ha, scale 0 to 100) | Plant response rating, Sedge, Umbrella (sedge, umbrella; 250 g ai/ha, scale 0 to 100) | Foxtail, Giant plant response rating (foxtail, giant [6]; [20]) | Velvetleaf plant response rating (velvetleaf [8]; [21]) | Pigweed plant response rating (pigweed [12]; [20]) | Morningglory plant response rating (morningglory [15]; [21]) | Crabgrass, Large plant response rating (crabgrass, large [16]; [20])
80: Crabgrass, Large plant response rating (crabgrass, large [3]; [21]) | Foxtail, Giant plant response rating (foxtail, giant [13]; [21])
60: Barnyardgrass plant response rating (barnyardgrass [7]; [22])
30: Velvetleaf plant response rating (velvetleaf [11]; [20])
85: Plant response rating, Ducksalad (ducksalad; [19]) | Plant response rating, Sedge, Umbrella (sedge, umbrella; [19])
90: Barnyardgrass plant response rating (barnyardgrass [4]; [20]) | Pigweed plant response rating (pigweed [10]; [21])
50: Plant response rating, Ducksalad (ducksalad; [18]) | Corn plant response rating (corn [5]; [20]) | Corn plant response rating (corn [9]; [21]) | Wheat plant response rating (wheat [14]; [21]) | Wheat plant response rating (wheat [17]; [23])
70: Plant response rating, Sedge, Umbrella (sedge, umbrella; [18])
25: Plant response rating, Rice (rice; 125 g ai/ha, scale 0 to 100) | Plant response rating, Rice (rice; 250 g ai/ha, scale 0 to 100)
20: Plant response rating, Barnyardgrass (barnyardgrass [1]; 250 g ai/ha, scale 0 to 100)
95: Plant response rating, Ducksalad (ducksalad; 125 g ai/ha, scale 0 to 100)
0: Plant response rating, Barnyardgrass (barnyardgrass [1]; [18]) | Plant response rating, Barnyardgrass (barnyardgrass [1]; [19]) | Plant response rating, Barnyardgrass (barnyardgrass [1]; 125 g ai/ha, scale 0 to 100) | Plant response rating, Rice (rice; [18]) | Plant response rating, Rice (rice; [19])

Cc1cc(C(=O)NCC(F)(F)F)nn1Cc1cccc(OC(F)(F)F)c1 [Compound 5]
20: Velvetleaf plant response rating (velvetleaf [8]; [27]) | Velvetleaf plant response rating (velvetleaf [11]; [24]) | Crabgrass, Large plant response rating (crabgrass, large [16]; [25])
10: Crabgrass, Large plant response rating (crabgrass, large [3]; [27]) | Foxtail, Giant plant response rating (foxtail, giant [6]; [25]) | Barnyardgrass plant response rating (barnyardgrass [7]; 125 g ai/ha, 0 to 100 scale, 0 no effect, 100 complete control) | Corn plant response rating (corn [9]; [27]) | Pigweed plant response rating (pigweed [12]; [25]) | Foxtail, Giant plant response rating (foxtail, giant [13]; [27]) | Wheat plant response rating (wheat [14]; [26])
90: Pigweed plant response rating (pigweed [10]; [26])
75: Plant response rating, Sedge, Umbrella (sedge, umbrella; 250 g ai/ha, scale 0 to 100)
70: Crabgrass, Large plant response rating (crabgrass, large [3]; [26]) | Foxtail, Giant plant response rating (foxtail, giant [6]; [24])
40: Morningglory plant response rating (morningglory [2]; [24]) | Barnyardgrass plant response rating (barnyardgrass [7]; 500 g ai/ha, visual rating after approx. 10 days, 0 to 100 scale (0 no effect, 100 complete control)) | Corn plant response rating (corn [9]; [26]) | Morningglory plant response rating (morningglory [15]; [27])
60: Barnyardgrass plant response rating (barnyardgrass [4]; [24]) | Plant response rating, Ducksalad (ducksalad; 250 g ai/ha, scale 0 to 100) | Velvetleaf plant response rating (velvetleaf [8]; [26]) | Foxtail, Giant plant response rating (foxtail, giant [13]; [26])
50: Plant response rating, Sedge, Umbrella (sedge, umbrella; [19]) | Pigweed plant response rating (pigweed [10]; [27])
100: Pigweed plant response rating (pigweed [12]; [24]) | Morningglory plant response rating (morningglory [15]; [26]) | Crabgrass, Large plant response rating (crabgrass, large [16]; [24])
0: Plant response rating, Barnyardgrass (barnyardgrass [1]; [19]) | Plant response rating, Barnyardgrass (barnyardgrass [1]; 250 g ai/ha, scale 0 to 100) | Morningglory plant response rating (morningglory [2]; [25]) | Barnyardgrass plant response rating (barnyardgrass [4]; [25]) | Plant response rating, Ducksalad (ducksalad; [19]) | Plant response rating, Rice (rice; [19]) | Plant response rating, Rice (rice; 250 g ai/ha, scale 0 to 100) | Corn plant response rating (corn [5]; [24]) | Corn plant response rating (corn [5]; [25]) | Velvetleaf plant response rating (velvetleaf [11]; [25]) | Wheat plant response rating (wheat [14]; [27]) | Wheat plant response rating (wheat [17]; preemergence, 125 g ai/ha, visual injury, 0 to 100 scale, approx. 10 days)

CCCNC(=O)c1cc(CCC)n(Cc2cccc(OC(F)(F)F)c2)n1 [Compound 35]
70: Crabgrass, Large plant response rating (crabgrass, large [3]; [21]) | Barnyardgrass plant response rating (barnyardgrass [4]; [20])
20: Plant response rating, Ducksalad (ducksalad; [19]) | Plant response rating, Ducksalad (ducksalad; 125 g ai/ha, scale 0 to 100) | Plant response rating, Sedge, Umbrella (sedge, umbrella; [18]) | Corn plant response rating (corn [9]; [21]) | Wheat plant response rating (wheat [14]; [21])
30: Plant response rating, Sedge, Umbrella (sedge, umbrella; [19]) | Barnyardgrass plant response rating (barnyardgrass [7]; [22])
10: Plant response rating, Barnyardgrass (barnyardgrass [1]; 125 g ai/ha, scale 0 to 100) | Plant response rating, Barnyardgrass (barnyardgrass [1]; 250 g ai/ha, scale 0 to 100)
50: Morningglory plant response rating (morningglory [2]; [20]) | Plant response rating, Sedge, Umbrella (sedge, umbrella; 125 g ai/ha, scale 0 to 100) | Velvetleaf plant response rating (velvetleaf [11]; [20])
80: Plant response rating, Sedge, Umbrella (sedge, umbrella; 250 g ai/ha, scale 0 to 100)
100: Foxtail, Giant plant response rating (foxtail, giant [6]; [20]) | Velvetleaf plant response rating (velvetleaf [8]; [21]) | Morningglory plant response rating (morningglory [15]; [21]) | Crabgrass, Large plant response rating (crabgrass, large [16]; [20])
0: Plant response rating, Barnyardgrass (barnyardgrass [1]; [18]) | Plant response rating, Barnyardgrass (barnyardgrass [1]; [19]) | Plant response rating, Ducksalad (ducksalad; [18]) | Plant response rating, Rice (rice; [18]) | Plant response rating, Rice (rice; [19]) | Plant response rating, Rice (rice; 125 g ai/ha, scale 0 to 100) | Plant response rating, Rice (rice; 250 g ai/ha, scale 0 to 100) | Corn plant response rating (corn [5]; [20]) | Wheat plant response rating (wheat [17]; [23])
40: Foxtail, Giant plant response rating (foxtail, giant [13]; [21])
90: Pigweed plant response rating (pigweed [10]; [21]) | Pigweed plant response rating (pigweed [12]; [20])
60: Plant response rating, Ducksalad (ducksalad; 250 g ai/ha, scale 0 to 100)

CCc1cc(C(=O)NCC(C)C)nn1Cc1cccc(OC(F)(F)F)c1 [Compound 60]
40: Foxtail, Giant plant response rating (foxtail, giant [13]; [21])
20: Morningglory plant response rating (morningglory [2]; [20]) | Barnyardgrass plant response rating (barnyardgrass [7]; [22]) | Wheat plant response rating (wheat [14]; [21])
100: Foxtail, Giant plant response rating (foxtail, giant [6]; [20]) | Morningglory plant response rating (morningglory [15]; [21])
60: Velvetleaf plant response rating (velvetleaf [8]; [21]) | Pigweed plant response rating (pigweed [10]; [21])
0: Corn plant response rating (corn [5]; [20]) | Velvetleaf plant response rating (velvetleaf [11]; [20]) | Wheat plant response rating (wheat [17]; [23]) | Wheat plant response rating (wheat [17]; preemergence, 500 g ai/ha, visual injury after approx. 10 days, 0 to 100 scale (0 no effect, 100 complete control))
30: Crabgrass, Large plant response rating (crabgrass, large [3]; [21]) | Barnyardgrass plant response rating (barnyardgrass [4]; [20]) | Corn plant response rating (corn [9]; [21])
90: Pigweed plant response rating (pigweed [12]; [20]) | Crabgrass, Large plant response rating (crabgrass, large [16]; [20])
